Literature values as cited in patent US20150320795A1, “COMPOSITIONS AND METHODS COMPRISING POLYETHYLENE GLYCOL AND MAGNESIUM FOR TREATMENT OF NEURONAL INJURY” (priority 2012, published 2015).
Like-named read-outs stand apart in the source and are kept apart here.

Columns and labels:
brain injury = settings: animals; U.S. application Ser. No. 11/418,153
[1] = previously published

- serum magnesium half-lives ([1]; healthy volunteers, after one infusion): 1.25 to 4.75 h
- serum magnesium half-lives ([1]; patients, pre-eclampsia): 5.2 h
SMILES: [Mg+2] [magnesium]
- effect on the loss of cognitive functions following brain injury (brain injury): no effect
- serum magnesium half-lives ([1]; brain injured patients after a 24-hour infusion period): ~6 h
